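Following 48 hours of exposure in 96-well plates, responses at five concentrations were used to interpolate endpoints linearly. The concentration for full growth arrest is given as TGI.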
Legend:
Assay in all cases: NCI tumour cell line growth inhibition, 48 h
SR leukemia = test system: SR leukemia
U251 CNS = test system: U251 CNS
OVCAR-3 ovarian = test system: OVCAR-3 ovarian
SW-620 colon = test system: SW-620 colon
UO-31 renal = test system: UO-31 renal
MDA-N = test system: MDA-N
M14 melanoma = test system: M14 melanoma
CCRF-CEM leukemia = test system: CCRF-CEM leukemia
SNB-75 CNS = test system: SNB-75 CNS
HCC-2998 colon = test system: HCC-2998 colon
MDA-MB-231 breast = test system: MDA-MB-231 breast
HS 578T breast = test system: HS 578T breast

Row | Structure (SMILES) | TGI (SR leukemia) [µM] | TGI (U251 CNS) [µM] | TGI (OVCAR-3 ovarian) [µM] | TGI (SW-620 colon) [µM] | TGI (UO-31 renal) [µM] | TGI (MDA-N) [µM] | TGI (M14 melanoma) [µM] | TGI (CCRF-CEM leukemia) [µM] | TGI (SNB-75 CNS) [µM] | TGI (HCC-2998 colon) [µM] | TGI (MDA-MB-231 breast) [µM] | TGI (HS 578T breast) [µM]
1 | C(=C\c1cccs1)/c1cccc(/C=C/c2cccs2)n1 | > 100 | > 100 | > 100 | > 100 | > 100 | > 100 | > 100 | > 100 | 79.4 | > 100 | > 100 | –
2 | COc1ccc2[nH]cc(CCNC(=O)[C@H](Cc3ccccc3)NC(=O)[C@@H](NCC(F)(F)F)C(C)C)c2c1 | > 100 | 39 | 31.1 | 81.6 | 68.3 | 34 | 34.1 | 7.89 | – | – | 35.9 | 39.6
3 | O=C1NC2ON=C(c3ccccc3)C2C2ON=C(c3ccccc3)N12 (stereo not drawn) | – | – | > 100 | – | > 100 | > 100 | > 100 | – | > 100 | > 100 | > 100 | > 100
4 | COc1cc2c(oc(=O)c3c4oc([Si](C)(C)C)cc4cc(OC)c23)c2cccc(OCc3ccccc3)c12 | > 100 | – | > 77.9 | > 100 | > 100 | – | 61.3 | > 100 | 48 | > 100 | – | –
5 | CN(C)Nc1cc(=O)[nH]c(=O)[nH]1 | > 100 | > 100 | > 100 | > 100 | > 100 | > 100 | > 100 | > 100 | – | > 100 | > 100 | –
6 | COc1ccc2c3c1O[C@]1(C)C34CCN(C)C(C2)C42C=C[C@@]1(OC)c1c(O)ccc(O)c12 | – | > 100 | > 100 | > 100 | > 100 | – | – | > 100 | > 100 | > 100 | – | –
7 | C[N+](C)(C)CC(=O)N/N=C/c1oc(-c2c(O)ccc3ccccc23)c(-c2c(O)ccc3ccccc23)c1[N+](=O)[O-] | 58.3 | 47.8 | 44.2 | > 100 | 36 | – | 37.2 | 76.7 | 61.1 | 34.3 | – | –
8 | CS(=O)(=O)c1nc(-c2cc3c(c(S(C)(=O)=O)n2)CCC3)cc2c1CCCCC2 | – | > 100 | > 100 | > 100 | > 100 | > 100 | > 100 | > 100 | 24.7 | > 100 | > 100 | 40
9 | Cc1cc(=O)[nH]c(-n2[nH]c(C)c(CCO)c2=O)n1 | – | > 100 | > 100 | > 100 | > 100 | > 100 | > 100 | > 100 | – | > 100 | > 100 | > 100
10 | C/C(=N\NS(=O)(=O)c1ccc(C)cc1)C(CN1CCCCC1)C(c1ccccc1)c1c(O)c2ccccc2oc1=O (stereo not drawn) | > 100 | > 100 | > 100 | > 100 | > 100 | – | > 100 | > 100 | > 100 | > 100 | – | –
11 | COC(=O)C(=O)C(C(=O)C(=O)Nc1ccc(F)cc1)c1nc2ccc([N+](=O)[O-])cc2[nH]c1=O (stereo not drawn) | > 100 | > 100 | > 100 | > 100 | > 100 | – | > 100 | > 100 | > 100 | > 100 | – | –
12 | O=c1c2c(oc3ccccc13)-c1ccccc1OC2 | – | > 100 | > 100 | > 100 | > 100 | > 100 | > 100 | > 100 | 50.7 | > 100 | 47.4 | –
13 | CNc1ncnc2c1ncn2C1C=CC(COS(N)(=O)=O)C1 (stereo not drawn) | > 100 | > 100 | > 100 | > 100 | > 100 | > 100 | > 100 | > 100 | > 100 | > 100 | – | > 100
14 | CC1C2(C)OC(=N)C(C#N)(C(c3ccccc3)O2)C1(C#N)C#N (stereo not drawn) | – | 46.6 | 29.1 | – | > 100 | 44.4 | 28 | 67.6 | > 100 | 22.7 | 35.4 | 78.6
15 | O=C(CSc1nnc(-c2ccc(N=Cc3ccc(Cl)cc3)cc2)o1)Nc1ccccc1[N+](=O)[O-] | > 100 | > 100 | – | > 100 | > 100 | – | > 100 | > 100 | > 100 | – | – | –
16 | COC(=O)[C@@H]1CN(C(C)=O)C(=O)N1 | – | > 100 | > 100 | > 100 | > 100 | > 100 | > 100 | > 100 | > 100 | > 100 | > 100 | > 100
17 | C1=NCCN2CCN(CCN=Cc3ccc(cc3)OCc3cccc(n3)COc3ccc1cc3)CC2 | > 50 | > 50 | > 50 | > 50 | > 50 | – | > 50 | > 50 | > 50 | – | > 50 | > 50

Row | Structure (SMILES) | TGI (SR leukemia) [µM] | TGI (U251 CNS) [µM] | TGI (OVCAR-3 ovarian) [µM] | TGI (SW-620 colon) [µM] | TGI (UO-31 renal) [µM] | TGI (MDA-N) [µM] | TGI (M14 melanoma) [µM] | TGI (CCRF-CEM leukemia) [µM] | TGI (SNB-75 CNS) [µM] | TGI (HCC-2998 colon) [µM] | TGI (MDA-MB-231 breast) [µM] | TGI (HS 578T breast) [µM]
18 | COc1cc(O)c2c(=O)cc(-c3ccc(O)cc3O)oc2c1CC=C(C)C | 26.3 | 38.2 | – | > 100 | 33.5 | 61.5 | 30.2 | 63 | 46.1 | – | 54.1 | > 100
19 | C=C(C)C1=CCC[C@]2(C1)N=C(OC)[C@@H](C(C)C)N=C2OC | – | > 100 | > 100 | > 100 | > 100 | > 100 | > 100 | > 100 | > 100 | > 100 | > 100 | > 100
20 | CC1=NN(C(=O)c2ccccc2O)C(=O)/C1=C/c1ccco1 | > 100 | > 100 | 6.11 | > 100 | – | > 100 | > 100 | > 100 | 69.4 | > 100 | > 100 | –
21 | O=c1[nH]c2cc(Cl)ccc2nc1/C(=N\O)C(O)c1cccc([N+](=O)[O-])c1 (stereo not drawn) | – | – | > 100 | > 100 | > 100 | – | > 100 | > 100 | > 100 | > 100 | – | –
22 | O=C1/C(=C/c2cccc(F)c2)CCCc2ccccc21 | 32.8 | 29.7 | 28.6 | 30.5 | 29.9 | – | 26.8 | 34 | 41.3 | 27.8 | 32.5 | 28.5
23 | CC(=O)OCC1=C(CCC#N)N2C(=O)C(NC(=O)Cc3cccs3)C2S(=O)C1 (stereo not drawn) | > 100 | > 100 | > 100 | > 100 | > 100 | – | > 100 | > 100 | > 100 | > 100 | – | –
24 | O=C(c1cccs1)N(C(=S)N1CCN(c2ccccn2)CC1)c1ccccc1 | > 100 | > 100 | > 100 | > 100 | > 100 | – | > 100 | > 100 | > 100 | – | – | –
25 | CC(=O)OC1COC(n2c(O)c(N=NC(N)=S)c3cc(Br)ccc32)C(OC(C)=O)C1OC(C)=O (stereo not drawn) | > 100 | > 100 | > 100 | > 100 | – | – | > 100 | > 100 | – | > 100 | – | –
26 | NC(=O)N/N=C(\CC1OC(=O)c2ccccc21)c1ccco1 (stereo not drawn) | – | – | > 100 | > 100 | > 100 | – | > 100 | > 100 | > 100 | > 100 | – | –
27 | COC(=O)C1(CCC(C)=O)CCCCCC1=O (stereo not drawn) | > 100 | > 100 | > 100 | > 100 | > 100 | > 100 | > 100 | – | > 100 | > 100 | > 100 | –
28 | O=C1/C(=C\c2ccc(O)cc2)CCC/C1=C/c1ccc(Cl)c(Cl)c1 | – | 16 | 9.73 | 12 | 5.6 | 8.01 | 5.44 | 1.2 | 11.8 | 5.94 | 7.55 | 21.5
29 | O=[N+]([O-])/C(C(Cl)=C(Cl)Cl)=C(\N1CCOCC1)n1nnc2ccccc21 | – | 30.3 | 42.2 | – | 33 | 42.5 | 33.4 | – | 42.4 | – | 35.1 | –
30 | COC(=O)N/N=C(\Cc1ccccc1)CN(C)C | – | > 100 | > 100 | > 100 | – | – | > 100 | > 100 | > 100 | > 100 | – | –
31 | CNS(=O)(=O)NN(C)S(=O)(=O)c1ccccc1 | > 100 | > 100 | – | > 100 | > 100 | – | > 100 | > 100 | > 100 | > 100 | – | –
32 | CCOC(=O)c1cccn1S(=O)(=O)c1cc(Cl)ccc1NC(=O)CC | – | > 100 | > 100 | > 100 | 54 | – | – | > 100 | > 100 | – | > 100 | > 100
33 | CCc1n[nH]c(=O)n1/N=C/c1c(O)ccc2ccccc12 | > 100 | > 100 | > 100 | > 100 | > 100 | > 100 | > 100 | > 100 | > 100 | > 100 | > 100 | –
